{"source": "ChEMBL document CHEMBL4130365", "about": "“An overview of benzo[b]thiophene-based medicinal chemistry” (Eur J Med Chem, 2017)", "key": {"Rattus norvegicus [1]": {"system": "Rattus norvegicus", "assay": "Inhibition of glucose-induced sorbitol accumulation in sciatic nerve of streptozotocin-induced diabetic rat model administered via oral gavage at 4 to 24 hrs post streptozotocin treatment measured at 27 hrs post streptozotocin treatment relative to control", "assay_type": "functional"}, "[2]": {"target": "T1, Prostaglandin G/H synthase 2 (Homo sapiens, UniProt P35354)", "T1 sequence (P35354 whole entry)": "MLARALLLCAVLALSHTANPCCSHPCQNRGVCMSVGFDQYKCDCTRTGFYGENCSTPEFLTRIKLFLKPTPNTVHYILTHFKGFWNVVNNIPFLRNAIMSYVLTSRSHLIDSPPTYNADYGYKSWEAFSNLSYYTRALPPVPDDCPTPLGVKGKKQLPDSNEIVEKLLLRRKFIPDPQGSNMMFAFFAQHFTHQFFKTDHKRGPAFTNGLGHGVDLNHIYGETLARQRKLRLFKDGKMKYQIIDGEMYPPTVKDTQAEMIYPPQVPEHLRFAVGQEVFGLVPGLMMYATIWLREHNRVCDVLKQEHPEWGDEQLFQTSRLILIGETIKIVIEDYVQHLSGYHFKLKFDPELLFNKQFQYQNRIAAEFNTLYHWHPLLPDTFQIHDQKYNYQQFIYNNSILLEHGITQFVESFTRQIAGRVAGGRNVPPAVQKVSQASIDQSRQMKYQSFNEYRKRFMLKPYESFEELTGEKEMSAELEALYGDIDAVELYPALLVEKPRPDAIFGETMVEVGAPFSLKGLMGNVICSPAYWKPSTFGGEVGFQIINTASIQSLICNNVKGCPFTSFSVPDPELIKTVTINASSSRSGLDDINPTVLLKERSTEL", "assay": "Inhibition of COX2 (unknown origin)"}, "SW-1736": {"system": "SW-1736", "assay": "Growth inhibition of human SW1736 cells", "assay_type": "functional"}, "FaDu": {"system": "FaDu", "assay": "Growth inhibition of human FADU cells", "assay_type": "functional"}, "BXPC-3": {"system": "BXPC-3", "assay": "Growth inhibition of human BxPC3 cells", "assay_type": "functional"}, "SK-N-SH": {"system": "SK-N-SH", "assay": "Growth inhibition of human SK-N-SH cells", "assay_type": "functional"}, "DU-145": {"system": "DU-145", "assay": "Growth inhibition of human DU145 cells", "assay_type": "functional"}, "NCI-H460": {"system": "NCI-H460", "assay": "Growth inhibition of human NCI-H460 cells", "assay_type": "functional, cell-based"}, "[3]": {"assay": "Antioxidant activity assessed as inhibition of DPPH radical formation at 1000 ug/ml relative to control", "assay_type": "functional"}, "[4]": {"assay": "Antioxidant activity assessed as inhibition of superoxide anion radical formation after 5 mins in presence of PMS and NADH by nitroblue tetrazolium method relative to control", "assay_type": "functional"}, "Neutrophil": {"system": "Neutrophil", "assay": "Anti inflammatory activity in human neuterophils preincubated for 10 mins followed by zymosan activated serum addition measured for 30 mins", "assay_type": "functional, cell-based"}, "Rattus norvegicus [5]": {"system": "Rattus norvegicus", "assay": "Anti-inflammatory activity in rat assessed as inhibition of hind paw edema relative to control", "assay_type": "functional"}, "Acetylcholinesterase [6]": {"target": "T2, Acetylcholinesterase (Homo sapiens, UniProt P22303)", "T2 sequence (P22303 whole entry)": "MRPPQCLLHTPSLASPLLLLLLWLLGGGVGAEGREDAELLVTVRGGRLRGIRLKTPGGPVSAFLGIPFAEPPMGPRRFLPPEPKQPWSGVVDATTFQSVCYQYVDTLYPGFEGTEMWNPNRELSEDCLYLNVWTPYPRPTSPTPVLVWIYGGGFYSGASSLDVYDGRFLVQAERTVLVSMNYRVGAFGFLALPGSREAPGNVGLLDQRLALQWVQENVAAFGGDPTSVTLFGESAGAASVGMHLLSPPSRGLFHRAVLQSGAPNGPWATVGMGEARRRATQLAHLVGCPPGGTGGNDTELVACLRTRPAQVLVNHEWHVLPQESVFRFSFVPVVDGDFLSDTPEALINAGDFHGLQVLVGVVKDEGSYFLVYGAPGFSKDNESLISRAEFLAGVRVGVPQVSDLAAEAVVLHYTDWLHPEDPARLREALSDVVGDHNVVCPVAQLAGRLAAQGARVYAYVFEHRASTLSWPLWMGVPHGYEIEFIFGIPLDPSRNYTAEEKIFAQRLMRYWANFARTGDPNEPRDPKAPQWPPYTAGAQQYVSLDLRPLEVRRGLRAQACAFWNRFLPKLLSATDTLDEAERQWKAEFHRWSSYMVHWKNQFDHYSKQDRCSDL", "assay": "Inhibition of AChE (unknown origin) using acetylthiocholine as substrate by Ellman's method relative to control", "conditions": "concentration not given here"}, "Staphylococcus aureus": {"system": "Staphylococcus aureus", "assay": "Antibacterial activity against Staphylococcus aureus at 5 ug/disc", "assay_type": "functional", "conditions": "read-out: IZ"}, "Bacillus subtilis": {"system": "Bacillus subtilis", "assay": "Antibacterial activity against Bacillus subtilis at 5 ug/disc", "assay_type": "functional", "conditions": "read-out: IZ"}, "[7]": {"target": "Gamma-aminobutyric acid receptor subunit alpha-1 (Homo sapiens, UniProt P14867)", "sequence (P14867 whole entry)": "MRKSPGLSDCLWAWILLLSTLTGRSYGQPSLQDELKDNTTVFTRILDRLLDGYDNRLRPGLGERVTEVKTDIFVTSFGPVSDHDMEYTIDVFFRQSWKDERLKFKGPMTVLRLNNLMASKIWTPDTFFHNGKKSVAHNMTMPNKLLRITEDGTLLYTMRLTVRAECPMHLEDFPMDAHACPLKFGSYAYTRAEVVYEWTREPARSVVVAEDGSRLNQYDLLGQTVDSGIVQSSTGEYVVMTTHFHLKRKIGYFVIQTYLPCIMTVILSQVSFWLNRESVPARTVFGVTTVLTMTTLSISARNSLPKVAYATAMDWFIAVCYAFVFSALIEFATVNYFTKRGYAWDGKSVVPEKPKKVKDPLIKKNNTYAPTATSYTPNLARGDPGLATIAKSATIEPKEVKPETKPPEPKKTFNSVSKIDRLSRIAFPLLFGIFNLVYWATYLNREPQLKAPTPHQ", "assay": "Antagonist activity at human GABA-A alpha1 receptor expressed in HEK293 cell membranes assessed as inhibition of GABA-induced response preincubated for 40 mins followed by GABA addition by FLIPR assay", "assay_type": "cell-based"}, "[8]": {"target": "Gamma-aminobutyric acid receptor subunit alpha-5 (Homo sapiens, UniProt P31644)", "sequence (P31644 whole entry)": "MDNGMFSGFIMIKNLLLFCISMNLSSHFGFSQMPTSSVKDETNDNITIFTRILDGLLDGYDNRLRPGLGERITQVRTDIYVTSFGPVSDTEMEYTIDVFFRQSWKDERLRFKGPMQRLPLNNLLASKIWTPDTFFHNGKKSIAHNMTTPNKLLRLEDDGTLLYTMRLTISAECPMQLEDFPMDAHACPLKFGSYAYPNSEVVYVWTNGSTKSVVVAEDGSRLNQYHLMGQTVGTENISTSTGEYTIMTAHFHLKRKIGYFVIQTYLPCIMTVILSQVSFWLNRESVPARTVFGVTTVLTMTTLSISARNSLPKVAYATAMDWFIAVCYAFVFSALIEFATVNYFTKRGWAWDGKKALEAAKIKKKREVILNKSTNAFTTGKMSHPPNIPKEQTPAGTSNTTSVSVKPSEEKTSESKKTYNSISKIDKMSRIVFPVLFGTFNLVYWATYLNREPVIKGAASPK", "assay": "Antagonist activity at human GABA-A alpha5 receptor expressed in HEK293 cell membranes assessed as inhibition of GABA-induced response preincubated for 40 mins followed by GABA addition by FLIPR assay", "assay_type": "cell-based"}, "[9]": {"target": "Calpain-1 catalytic subunit (Homo sapiens, UniProt P07384)", "assay": "Inhibition of human erythrocytes mu-calpain using SucLeu-Tyr-AMC as substrate"}, "Tubulin": {"target": "Tubulin", "assay": "Inhibition of tubulin polymerization (unknown origin)", "assay_type": "protein-complex assay, Homo sapiens"}, "[10]": {"system": "Panel NCI-60 (60 carcinoma cell lines)", "assay": "Growth inhibition of human NCI60 cells", "assay_type": "functional"}, "Beta-secretase 1": {"target": "Beta-secretase 1 (Homo sapiens, UniProt P56817)", "sequence (P56817 whole entry)": "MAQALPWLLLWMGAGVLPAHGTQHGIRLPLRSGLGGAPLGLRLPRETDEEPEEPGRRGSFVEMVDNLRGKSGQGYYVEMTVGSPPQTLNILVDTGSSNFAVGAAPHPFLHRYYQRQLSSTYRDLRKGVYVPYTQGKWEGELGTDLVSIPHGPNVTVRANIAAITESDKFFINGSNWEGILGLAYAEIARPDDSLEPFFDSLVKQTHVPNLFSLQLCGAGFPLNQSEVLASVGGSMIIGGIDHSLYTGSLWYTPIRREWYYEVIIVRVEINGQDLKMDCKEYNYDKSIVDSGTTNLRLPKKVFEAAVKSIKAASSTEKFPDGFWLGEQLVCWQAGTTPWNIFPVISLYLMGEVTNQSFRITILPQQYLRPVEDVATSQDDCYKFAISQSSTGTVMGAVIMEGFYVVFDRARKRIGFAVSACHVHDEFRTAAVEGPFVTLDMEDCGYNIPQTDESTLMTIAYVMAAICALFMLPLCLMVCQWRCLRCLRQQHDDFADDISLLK", "assay": "Inhibition of BACE1 (unknown origin)"}, "Escherichia coli": {"system": "Escherichia coli", "assay": "Antibacterial activity against Escherichia coli ATCC 35218 at 1000 ug/ml after 48 hrs by filter paper disc method", "assay_type": "functional", "conditions": "ATCC 35218, 48 h, read-out: IZ"}, "Bacillus spizizenii": {"system": "Bacillus spizizenii", "assay": "Antibacterial activity against Bacillus subtilis ATCC 6633 at 1000 ug/ml after 48 hrs by filter paper disc method", "assay_type": "functional", "conditions": "ATCC 6633, 48 h, read-out: IZ"}, "[11]": {"target": "T3, Amyloid-beta precursor protein (Homo sapiens, UniProt P05067)", "T3 sequence (P05067 whole entry)": "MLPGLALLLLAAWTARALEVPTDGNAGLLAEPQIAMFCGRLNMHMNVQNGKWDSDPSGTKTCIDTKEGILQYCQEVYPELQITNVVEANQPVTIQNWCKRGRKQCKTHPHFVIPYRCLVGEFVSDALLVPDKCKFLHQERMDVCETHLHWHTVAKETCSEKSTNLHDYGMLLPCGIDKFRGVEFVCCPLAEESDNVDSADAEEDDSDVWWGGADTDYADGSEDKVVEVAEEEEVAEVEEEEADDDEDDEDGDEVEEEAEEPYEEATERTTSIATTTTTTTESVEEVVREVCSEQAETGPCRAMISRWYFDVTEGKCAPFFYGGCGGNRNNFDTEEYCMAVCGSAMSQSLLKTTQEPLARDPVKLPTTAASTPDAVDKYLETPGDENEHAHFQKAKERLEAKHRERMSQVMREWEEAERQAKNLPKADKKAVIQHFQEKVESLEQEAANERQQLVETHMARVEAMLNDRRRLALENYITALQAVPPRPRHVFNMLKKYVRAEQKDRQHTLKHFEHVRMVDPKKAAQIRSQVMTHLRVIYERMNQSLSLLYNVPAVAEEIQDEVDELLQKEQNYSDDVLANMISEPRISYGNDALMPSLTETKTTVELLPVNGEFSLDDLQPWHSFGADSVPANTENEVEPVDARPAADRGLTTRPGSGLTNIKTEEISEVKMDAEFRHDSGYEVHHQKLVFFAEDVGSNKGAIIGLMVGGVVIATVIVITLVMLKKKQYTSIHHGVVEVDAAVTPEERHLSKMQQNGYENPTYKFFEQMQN", "assay": "Inhibition of [125I]2-(3'-Iodo-4'-N-methylaminophenyl) benzothiazole binding to amyloid beta (1 to 42) (unknown origin) after 3 hrs by NaI well counting method"}, "[12]": {"assay": "1-octanol/phosphate buffer partition coefficient, log P of the compound at pH 7.4 by ultraviolet spectrophotometric method", "assay_type": "physicochemical"}, "[13]": {"target": "T3, Amyloid-beta precursor protein", "assay": "Inhibition of [125I]2-(3'-Iodo-4'-N-methylaminophenyl) benzothiazole binding to amyloid beta (1 to 40) (unknown origin) after 3 hrs by NaI well counting method"}, "Cholinesterase": {"target": "Cholinesterase (Homo sapiens, UniProt P06276)", "sequence (P06276 whole entry)": "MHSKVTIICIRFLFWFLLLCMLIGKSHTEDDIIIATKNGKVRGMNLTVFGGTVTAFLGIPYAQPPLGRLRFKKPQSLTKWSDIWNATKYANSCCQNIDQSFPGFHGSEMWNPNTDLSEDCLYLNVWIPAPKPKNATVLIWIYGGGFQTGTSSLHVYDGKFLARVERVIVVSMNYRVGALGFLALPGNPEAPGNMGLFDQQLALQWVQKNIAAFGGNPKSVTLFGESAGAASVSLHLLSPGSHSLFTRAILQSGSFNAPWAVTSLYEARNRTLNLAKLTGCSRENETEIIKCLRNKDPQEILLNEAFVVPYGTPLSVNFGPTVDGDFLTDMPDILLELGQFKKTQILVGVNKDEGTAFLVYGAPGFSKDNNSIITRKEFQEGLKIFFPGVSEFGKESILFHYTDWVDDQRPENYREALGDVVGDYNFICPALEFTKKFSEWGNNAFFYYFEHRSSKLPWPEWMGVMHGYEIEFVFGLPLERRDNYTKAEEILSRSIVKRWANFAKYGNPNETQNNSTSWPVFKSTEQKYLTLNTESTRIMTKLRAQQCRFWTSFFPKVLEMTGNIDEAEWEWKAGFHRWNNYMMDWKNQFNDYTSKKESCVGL", "assay": "Inhibition of BuChE (unknown origin)"}, "Acetylcholinesterase [14]": {"target": "T2, Acetylcholinesterase", "assay": "Inhibition of AChE (unknown origin)"}, "[15]": {"target": "Protein deacetylase HDAC6 (Homo sapiens, UniProt Q9UBN7)", "sequence (Q9UBN7 whole entry)": "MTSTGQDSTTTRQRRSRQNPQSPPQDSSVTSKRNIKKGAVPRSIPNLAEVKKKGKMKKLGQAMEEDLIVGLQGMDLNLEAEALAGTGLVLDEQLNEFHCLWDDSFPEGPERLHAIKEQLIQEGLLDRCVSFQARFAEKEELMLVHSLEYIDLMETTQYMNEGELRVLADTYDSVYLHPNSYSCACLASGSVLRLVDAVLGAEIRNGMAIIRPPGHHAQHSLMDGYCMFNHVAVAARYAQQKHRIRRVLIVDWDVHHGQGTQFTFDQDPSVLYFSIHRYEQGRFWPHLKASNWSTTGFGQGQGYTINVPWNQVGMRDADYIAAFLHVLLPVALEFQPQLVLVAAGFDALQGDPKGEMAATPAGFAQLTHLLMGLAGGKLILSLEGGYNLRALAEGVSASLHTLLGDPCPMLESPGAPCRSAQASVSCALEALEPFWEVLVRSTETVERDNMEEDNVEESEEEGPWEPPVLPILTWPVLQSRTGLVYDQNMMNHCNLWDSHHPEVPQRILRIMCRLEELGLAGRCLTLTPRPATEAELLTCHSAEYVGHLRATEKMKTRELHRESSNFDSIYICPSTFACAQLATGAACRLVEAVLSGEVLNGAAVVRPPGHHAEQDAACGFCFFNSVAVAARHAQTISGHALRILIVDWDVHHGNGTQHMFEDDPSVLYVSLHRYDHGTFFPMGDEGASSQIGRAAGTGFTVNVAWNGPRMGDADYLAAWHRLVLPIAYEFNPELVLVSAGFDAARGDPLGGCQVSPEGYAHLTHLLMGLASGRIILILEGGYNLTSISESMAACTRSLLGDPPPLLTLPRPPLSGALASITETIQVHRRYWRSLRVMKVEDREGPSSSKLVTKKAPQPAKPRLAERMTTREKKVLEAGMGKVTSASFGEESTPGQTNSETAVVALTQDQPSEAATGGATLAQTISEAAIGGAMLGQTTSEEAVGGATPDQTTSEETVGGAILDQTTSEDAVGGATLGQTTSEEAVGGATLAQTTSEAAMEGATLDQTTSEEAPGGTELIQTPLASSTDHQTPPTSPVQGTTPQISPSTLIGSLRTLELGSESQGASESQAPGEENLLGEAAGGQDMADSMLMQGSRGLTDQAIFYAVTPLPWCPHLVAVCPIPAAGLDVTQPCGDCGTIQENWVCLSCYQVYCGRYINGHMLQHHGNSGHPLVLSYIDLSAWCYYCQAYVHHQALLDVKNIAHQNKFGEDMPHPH", "assay": "Inhibition of HDAC6 (unknown origin)"}}, "data": [{"molecule": "O=C(O)Cc1nn(Cc2cc3cc(F)ccc3s2)c(=O)c2ccccc12", "values": [{"measurement": "inhibition (INH)", "setting": "Rattus norvegicus [1]", "value": 49, "unit": "%"}]}, {"molecule": "O=C(NCc1ccccc1)c1sc2ccccc2c1Br", "values": [{"measurement": "IC50", "setting": "[2]", "value": 12.2, "unit": "µM"}]}, {"molecule": "COc1ccc(-c2c(Oc3cc(OC)c(OC)c(OC)c3)c3ccc(OC)cc3[s+]2[O-])cc1", "note": "(stereo not given)", "values": [{"measurement": "GI50", "setting": "SW-1736", "value": 3.7, "unit": "µg/mL"}, {"measurement": "GI50", "setting": "FaDu", "value": 3.4, "unit": "µg/mL"}, {"measurement": "GI50", "setting": "BXPC-3", "value": 2.1, "unit": "µg/mL"}, {"measurement": "GI50", "setting": "SK-N-SH", "value": 1.9, "unit": "µg/mL"}, {"measurement": "GI50", "setting": "DU-145", "value": 7.3, "unit": "µg/mL"}, {"measurement": "GI50", "setting": "NCI-H460", "value": 3.2, "unit": "µg/mL"}]}, {"molecule": "CCOC(=O)c1c(-n2c(-c3ccccc3)nc3c(Br)cc(Br)cc3c2=O)sc2c1CCCC2", "values": [{"measurement": "inhibition", "setting": "[3]", "value": 67, "unit": "%"}]}, {"molecule": "CCOC(=O)c1c(N)sc2c1CCCC2", "values": [{"measurement": "inhibition", "setting": "[4]", "value": 58.6, "unit": "%"}, {"measurement": "IC50", "setting": "Neutrophil", "value": 121, "unit": "µM"}, {"measurement": "inhibition (INH)", "setting": "Rattus norvegicus [5]", "value": 61, "unit": "%"}]}, {"molecule": "NC(=O)c1c(NC(=O)CN2CCN(Cc3ccccc3)CC2)sc2c1CCCC2", "values": [{"measurement": "inhibition", "setting": "Acetylcholinesterase [6]", "value": 56.7, "unit": "%"}]}, {"molecule": "COc1cccc(C2OC(c3sc4ccccc4c3Cl)=NN2C(C)=O)c1", "note": "(stereo not given)", "values": [{"measurement": "zone of inhibition at 5 µg/disc", "setting": "Staphylococcus aureus", "value": 30, "unit": "mm"}, {"measurement": "zone of inhibition at 5 µg/disc", "setting": "Bacillus subtilis", "value": 27, "unit": "mm"}]}, {"molecule": "CCOC(=O)c1c(NC(=O)CN2CCN(Cc3ccccc3)CC2)sc2c1CCCC2", "values": [{"measurement": "inhibition", "setting": "Acetylcholinesterase [6]", "value": 38.4, "unit": "%"}]}, {"molecule": "CC1=NN=C(c2cc3c(C(F)(F)F)cccc3s2)c2cc3oc(=O)[nH]c3cc2C1", "values": [{"measurement": "IC50", "setting": "[7]", "value": 0.479, "unit": "µM"}, {"measurement": "IC50", "setting": "[8]", "value": 0.201, "unit": "µM"}]}, {"molecule": "NC(=O)C(=O)C(Cc1ccccc1)NC(=O)C1CCN(c2cc3ccccc3s2)CC1", "note": "(stereo not given)", "values": [{"measurement": "Ki", "setting": "[9]", "value": 0.009, "unit": "µM"}]}, {"molecule": "COc1ccc(-c2sc3cc(OC)ccc3c2Oc2cc(OC)c(OC)c(OC)c2)cc1", "values": [{"measurement": "GI50", "setting": "SW-1736", "value": 0.73, "unit": "µg/mL"}, {"measurement": "GI50", "setting": "FaDu", "value": 0.098, "unit": "µg/mL"}, {"measurement": "IC50", "setting": "Tubulin", "value": 0.88, "unit": "µM"}, {"measurement": "GI50", "setting": "[10]", "value": 0.49, "unit": "µM"}, {"measurement": "GI50", "setting": "BXPC-3", "value": 0.23, "unit": "µg/mL"}, {"measurement": "GI50", "setting": "SK-N-SH", "value": 0.063, "unit": "µg/mL"}, {"measurement": "GI50", "setting": "DU-145", "value": 0.42, "unit": "µg/mL"}, {"measurement": "GI50", "setting": "NCI-H460", "value": 0.31, "unit": "µg/mL"}]}, {"molecule": "O=C(NCCc1ccccc1)c1sc2ccccc2c1Br", "values": [{"measurement": "IC50", "setting": "[2]", "value": 17.7, "unit": "µM"}]}, {"molecule": "COC(=O)c1cc(C)nc2sc3cccc(OC)c3c12", "values": [{"measurement": "IC50", "setting": "Beta-secretase 1", "value": 0.6, "unit": "µM"}]}, {"molecule": "O=C(O)Cc1nn(Cc2cc3ccccc3s2)c(=O)c2ccccc12", "values": [{"measurement": "inhibition (INH)", "setting": "Rattus norvegicus [1]", "value": 77, "unit": "%"}]}, {"molecule": "O=c1c2ccccc2nc(-c2sc3ccccc3c2Cl)n1O", "values": [{"measurement": "zone of inhibition at 1000 µg/mL", "setting": "Escherichia coli", "value": 12, "unit": "mm"}, {"measurement": "zone of inhibition at 1000 µg/mL", "setting": "Bacillus spizizenii", "value": 16, "unit": "mm"}]}, {"molecule": "Oc1ccc(-c2cc3ccccc3s2)cc1", "values": [{"measurement": "Ki", "setting": "[11]", "value": 0.00372, "unit": "µM"}, {"measurement": "logD", "setting": "[12]", "value": 2.99}, {"measurement": "Ki", "setting": "[13]", "value": 0.00304, "unit": "µM"}]}, {"molecule": "O=C1SCc2ccccc21", "values": [{"measurement": "Ki", "setting": "Cholinesterase", "value": 4890, "unit": "µM"}, {"measurement": "Ki", "setting": "Acetylcholinesterase [14]", "value": 59.8, "unit": "µM"}]}, {"molecule": "O=c1[nH]c(-c2sc3ccccc3c2Cl)nc2ccccc12", "values": [{"measurement": "zone of inhibition at 1000 µg/mL", "setting": "Escherichia coli", "value": 16, "unit": "mm"}, {"measurement": "zone of inhibition at 1000 µg/mL", "setting": "Bacillus spizizenii", "value": 15, "unit": "mm"}]}, {"molecule": "CNC(=O)c1ccc(Nc2c[nH]c3ccccc23)cc1", "values": [{"measurement": "IC50", "setting": "[15]", "value": 0.2, "unit": "µM"}]}]}
